The target of one test is T1, gastric H^+,K^+ -ATPase (Sus scrofa, UniProt P19156).
T1 construct: from tissue; host or cells: hog stomach, purified membrane fraction (GI fraction of Saccomani et al. 1977)
Description: In vitro inhibition of gastric H+,K+-ATPase. Type of test: biochemical. As to conditions: hog gastric membrane, pH 7.4, 30 min incubation, negative log of concentration (M) giving 50% inhibition. The method, then: I. In vitro inhibition of gastric H^+,K^+ -ATPase
Hog gastric H^+,K^+ -ATPase was purified according to Saccomani et al., Biochim. Biophys. Acta 465, 311-330, 1977. 10 μg of membrane protein (GI-fraction in the reference listed above) was incubated with 2 mmol/l of piperazine-N,N'bis-(2-ethane sulfonic acid) buffer pH 7.4 and the test compound in concentrations 10^-7 -10^-4 M in a final volume of 1 ml. (The test compound was dissolved in methanol. Aliquots of these stock solutions were diluted to a final methanol concentration below 1%, which on its own had no effect on the enzyme activities.) After 30 minutes of incubation, the remaining H^+,K^+ -ATPase activity was determined, according to Wallmark et al., Biochim. Biophys. Acta, 728, 31-38, 1983. A dose-response curve was constructed and the concentration at half-maximal inhibition (IC50) could be determined.
pIC50 is the negative logarithm of the concentration (in M) of the test compound giving 50% inhibition.

For test [1], the system named is ethanol-induced gastric lesions. The test is described as follows: In vivo cytoprotective effect: effect on ethanol-induced gastric lesions in the rat. Set-up: species or system rat (female Spraque-Dawley). As to conditions: oral, 30 min before 1 ml absolute ethanol, dose giving 50% reduction of total lesion length vs control (11.0 cm); for ED50: Rattus norvegicus, read-out: III Rat Cytoprot. ED50. The method, then:
III. In vivo cytoprotective effect: Effect on ethanol-induced gastric lesions in the rat
Two groups of female Spraque-Dawley rats (190-220 g) were used, one for the test compound and one for the control experiment. Food, but not water, was removed 24 h before the experiments.
The animals in the test group were treated orally with the test compound dissolved in 10% ethanol in 0.5% Methocel® immediately before use and the animals in the control group were given the vehicle only in a dose of 2.5 ml/kg.
Thirty minutes later the rats were given orally 1 ml of absolute ethanol (a standard agent for inducing gastric mucosal lesions).
Sixty minutes later the rats were killed by carbon dioxide asphyxiation, their stomachs dissected out and the gastric mucosae were examined for the presence of necrotic lesions. The total lengths of the lesions in the stomachs were measured in the test group and in the control group, in both cases treated thirty minutes before with ethanol.
The ED50 -value represents the dose of the compound giving 50% reduction of the total lengths of lesions compared to the total lengths of lesions of the control experiment (11.0 cm).

For a further test, the system named is gastric acid secretion. Description: Inhibiting effect in vivo on gastric acid secretion in conscious dog. Particulars: conscious chronic gastric fistula dog, oral by stomach tube, histamine-induced secretion, 1 h after dosing, peak inhibitory effect. The method, then:
II. Inhibiting effect in vivo on gastric acid secretion in conscious dog
Chronic gastric fistula dogs were used. These dogs have been surgically provided with a gastric cannula in the stomach and a duodenal fistula used for direct intraduodenal administration of test compounds. Following a 4 week's recovery period after surgery, tests were performed once a week on each dog. Food and water were withdrawn 18 hours before each test.
The test compound dissolved in 5% ethanol in 0.5% Methocel® (90 HG, 15.000, Dow Chem Corp.) was administered orally by using a stomach tube. After 1 hour gastric acid secretion was induced by continuous infusion of histamine at individual doses (400-600 nmol/kg, h), resulting in approx. 90% of maximal secretion of gastric acid. The gastric juice was collected by free flow from the gastric cannula in consecutive 30 minutes samples for 2 hours. The samples were titrated to pH 7.0 with 0.1M NaOH using a Radiometer automatic titrator and the acid output was calculated. The percent inhibition of acid secretion was calculated by comparing in each dog the acid output in the test to the acid output in control tests when only the vehicle was given. The peak inhibitory effect for each compound was determined.

T1 sequence (P19156 2-1034 limits assumed): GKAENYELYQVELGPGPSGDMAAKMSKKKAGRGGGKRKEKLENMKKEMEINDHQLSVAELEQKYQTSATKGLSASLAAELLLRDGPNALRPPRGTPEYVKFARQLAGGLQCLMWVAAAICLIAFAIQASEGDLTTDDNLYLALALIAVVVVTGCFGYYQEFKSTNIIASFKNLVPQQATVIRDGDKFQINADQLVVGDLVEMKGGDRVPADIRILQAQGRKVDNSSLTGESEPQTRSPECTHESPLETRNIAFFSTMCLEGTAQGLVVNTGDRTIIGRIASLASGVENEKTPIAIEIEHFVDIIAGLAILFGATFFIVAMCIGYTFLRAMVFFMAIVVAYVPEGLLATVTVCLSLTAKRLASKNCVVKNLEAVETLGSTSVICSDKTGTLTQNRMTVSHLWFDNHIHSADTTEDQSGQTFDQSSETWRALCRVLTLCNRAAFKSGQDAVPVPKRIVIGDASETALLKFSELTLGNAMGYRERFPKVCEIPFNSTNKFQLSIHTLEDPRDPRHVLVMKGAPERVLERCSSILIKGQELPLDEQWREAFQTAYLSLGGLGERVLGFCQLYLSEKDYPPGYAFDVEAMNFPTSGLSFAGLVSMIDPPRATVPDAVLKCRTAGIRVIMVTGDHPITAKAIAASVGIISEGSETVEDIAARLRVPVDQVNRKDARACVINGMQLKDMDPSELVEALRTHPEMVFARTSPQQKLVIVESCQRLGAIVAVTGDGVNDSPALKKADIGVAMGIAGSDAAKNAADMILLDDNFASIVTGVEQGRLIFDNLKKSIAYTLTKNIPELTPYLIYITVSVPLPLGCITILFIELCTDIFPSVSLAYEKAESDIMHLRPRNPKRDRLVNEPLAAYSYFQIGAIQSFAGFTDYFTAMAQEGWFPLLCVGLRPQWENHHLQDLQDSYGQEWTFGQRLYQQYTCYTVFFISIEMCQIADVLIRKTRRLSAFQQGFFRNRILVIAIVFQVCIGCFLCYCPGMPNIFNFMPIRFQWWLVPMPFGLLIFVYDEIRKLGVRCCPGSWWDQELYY
T1 sequence (P18434 whole entry partner): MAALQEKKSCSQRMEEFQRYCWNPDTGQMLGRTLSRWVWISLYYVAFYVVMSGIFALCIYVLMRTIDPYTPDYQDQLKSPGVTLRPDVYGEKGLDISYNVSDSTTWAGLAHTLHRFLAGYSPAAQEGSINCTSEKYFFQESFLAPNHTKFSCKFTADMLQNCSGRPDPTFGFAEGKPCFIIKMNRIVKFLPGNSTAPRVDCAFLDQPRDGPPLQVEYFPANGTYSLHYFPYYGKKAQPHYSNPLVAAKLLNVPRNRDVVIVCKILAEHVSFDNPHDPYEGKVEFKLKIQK

A word on the ED50: it is the midpoint of the dose-response relation. On to `COc1ccc2[n-]c(-[n+]3cc(C)c(OC)c(C)c3CSSCC(=O)O)nc2c1` [Example 7], for which the IC50 on gastric H^+,K^+ -ATPase (read-out: I Enzyme pIC50 (converted)) is 3.16e-05 M. Moreover, the median effective dose (ED50) in test [1] amounted to 30 µmol/kg.

With `COc1ccc2[nH]c(-[n+]3cc(C)c(OC)c(C)c3CSSCCO)nc2c1.[O-][Cl+3]([O-])([O-])[O-]` [Example 1, 3,5-dimethyl-4-methoxy-2-[(2-hydroxyethyl)dithiomethyl]-1-(5-methoxy-2-benzimidazolyl)-pyridiniumperchlorate], on gastric H^+,K^+ -ATPase, the “I Enzyme pIC50” value was found to be 5.0. The “III Rat Cytoprot. ED50” value in test [1] was 15 µmol/kg. For the same compound, the “II Dog Gast. acid secr. inhib. ED50” value with gastric acid secretion was 6 µmol/kg.

In the case of `COc1c(C)c[n+](-c2nc3ccccc3[n-]2)c(CSC#N)c1C` [Example 14], the ED50 in test [1] came to 20 µmol/kg; in the test on gastric acid secretion (Canis lupus familiaris, read-out: II Dog Gast. acid secr. inhib. ED50), 9 µmol/kg.
